Several values for one entry are separate records, joined by “and”; a condition that tells them apart may be missing. Equal values may be shown once.
Key:
Type in all cases: in vivo
[1] = system: Brachiaria decumbens; assay: greenhouse post-emergence treatment, BRADC
Outline: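 Greenhouse; post-emergence spray at 3–15 cm; aqueous EC formulation; 2–4 weeks; 0–100 visual score.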

[2] = system: Setaria viridis; assay: greenhouse post-emergence treatment, SETVI
Outline: (§1)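 Scoring used a 0 to 100 scale, with 100 denoting no emergence or full destruction of at least the above-ground parts, recorded within a 2 to 4 week test period. Test plants grew in loamy sand containing about 3.0% humus at 10-25° C. or 20-35° C., after direct sowing or transplanting, and received water-based treatments post-emergence.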

[3] = system: Echinocloa crus-galli; assay: greenhouse post-emergence treatment, ECHCG
Outline: (§2)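 Visual herbicidal effect (0–100) recorded over a 2 to 4 week test period after foliar treatment at plant heights of 3 to 15 cm. Expected combination effects derived by the Colby formula from single-component effects X and Y.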

[4] = system: Alopecurus myosuroides; assay: greenhouse post-emergence treatment, ALOMY
Outline: as §1

[5] = system: Matricaria chamomilla; assay: greenhouse post-emergence treatment, MATCH
Outline: as §2

[6] = system: Digitaria sanguinalis; assay: greenhouse post-emergence treatment, DIGSA
Outline: as §1

[7] = system: Lolium multiflorum; assay: greenhouse post-emergence treatment, LOLMU
Outline: as §1

[8] = 20 DAT, Ex. 26 solo 62.5 gai/ha

## COC(=O)c1nc(C2CC2)ncc1-c1ccc(F)cc1Cl [Ex. 26]
[1]; Ex. 26 solo 125 gai/ha, 20 DAT, BRADC (pyroxsulam table)
  % activity: 20%
[1]; Ex. 26 solo 125 gai/ha, 21 DAT, BRADC
  % activity: 0%
[1]; Ex. 26 solo 250 gai/ha, 20 DAT, BRADC (pyroxsulam table)
  % activity: 35%
[1]; Ex. 26 solo, 125 gai/ha, 20 DAT, BRADC
  % activity: 0%
[1]; Ex. 26 solo, 125 gai/ha, 21 DAT, BRADC
  % activity: 10%
[1]; Ex. 26 solo, 250 gai/ha, 20 DAT, BRADC
  % activity: 30%
[1]; Ex. 26 solo, 250 gai/ha, 21 DAT, BRADC
  % activity: 40%
[2]; [8]
  % activity: 0%
[2]; 21 DAT, Ex. 26 solo 125 gai/ha
  % activity: 0%
[2]; 21 DAT, Ex. 26 solo 250 gai/ha
  % activity: 0%
[2]; Ex. 26 solo 62.5 gai/ha, 20 DAT, SETVI (pyridate table)
  % activity: 0%
[2]; Ex. 26 solo 62.5 gai/ha, 20 DAT, SETVI (pyroxsulam table)
  % activity: 0%
[2]; Ex. 26 solo 125 gai/ha, 20 DAT, SETVI (pyridate table)
  % activity: 20%
[2]; Ex. 26 solo 125 gai/ha, 20 DAT, SETVI (pyroxsulam table)
  % activity: 0%
[2]; Ex. 26 solo 250 gai/ha, 20 DAT, SETVI (pyridate table)
  % activity: 25%
[2]; Ex. 26 solo 250 gai/ha, 20 DAT, SETVI (pyroxsulam table)
  % activity: 10%
[2]; Ex. 26 solo, 125 gai/ha, 21 DAT, SETVI
  % activity: 10%
[2]; Ex. 26 solo, 250 gai/ha, 21 DAT, SETVI
  % activity: 15%
[2]; SETVI, 21 DAT, solo Ex. 26 62.5 gai/ha
  % activity: 10%
[2]; SETVI, 21 DAT, solo Ex. 26 125 gai/ha
  % activity: 10%
[3]; 20 DAT, ECHCG, Ex. 26 solo 125 gai/ha
  % activity: 65%
[3]; 20 DAT, ECHCG, Ex. 26 solo 250 gai/ha
  % activity: 70%
[3]; 20 DAT, Ex. 26 solo 250 gai/ha
  % activity: 80% and 60%
[3]; ECHCG, Ex. 26 solo 62.5 gai/ha, 20 DAT
  % activity: 60%
[3]; ECHCG, Ex. 26 solo 125 gai/ha, 20 DAT
  % activity: 65%
[3]; ECHCG, Ex. 26 solo 250 gai/ha, 20 DAT
  % activity: 70% and 65%
[3]; Ex. 26 solo 62.5 gai/ha, 21 DAT, ECHCG
  % activity: 50%
[3]; Ex. 26 solo 250 gai/ha, 20 DAT, ECHCG
  % activity: 65%
[4]; 20 DAT, ALOMY, Ex. 26 solo 62.5 gai/ha
  % activity: 65%
[4]; 20 DAT, ALOMY, Ex. 26 solo 125 gai/ha
  % activity: 75%
[4]; 20 DAT, ALOMY, Ex. 26 solo 250 gai/ha
  % activity: 75%
[4]; 21 DAT, Ex. 26 solo 125 gai/ha
  % activity: 65%
[4]; 21 DAT, Ex. 26 solo 250 gai/ha
  % activity: 75%
[4]; ALOMY, Ex. 26 solo 125 gai/ha, 20 DAT
  % activity: 75% and 70%
[4]; ALOMY, Ex. 26 solo 250 gai/ha, 20 DAT
  % activity: 75%
[4]; Ex. 26 solo 62.5 gai/ha, 21 DAT, ALOMY
  % activity: 40%
[4]; Ex. 26 solo 125 gai/ha, 20 DAT, ALOMY (pinoxaden table)
  % activity: 73%
[4]; Ex. 26 solo 125 gai/ha, 20 DAT, ALOMY (pyridate table)
  % activity: 70%
[4]; Ex. 26 solo 250 gai/ha, 20 DAT, ALOMY (pyridate table)
  % activity: 75%
[5]; [8]
  % activity: 0%
[5]; 20 DAT, Ex. 26 solo 125 gai/ha
  % activity: 0%
[5]; 20 DAT, Ex. 26 solo 250 gai/ha
  % activity: 0%
[5]; 20 DAT, MATCH, Ex. 26 solo 62.5 gai/ha
  % activity: 0%
[5]; 20 DAT, MATCH, Ex. 26 solo 125 gai/ha
  % activity: 0%
[5]; 20 DAT, MATCH, Ex. 26 solo 250 gai/ha
  % activity: 0%
[5]; 21 DAT, Ex. 26 solo 250 gai/ha
  % activity: 0%
[5]; Ex. 26 solo 62.5 gai/ha, 20 DAT, MATCH (pyridate table)
  % activity: 0%
[5]; Ex. 26 solo 62.5 gai/ha, 20 DAT, MATCH (pyroxsulam table)
  % activity: 0%
[5]; Ex. 26 solo 125 gai/ha, 20 DAT, MATCH (pyridate table)
  % activity: 0%
[5]; Ex. 26 solo 125 gai/ha, 20 DAT, MATCH (pyroxsulam table)
  % activity: 0%
[5]; Ex. 26 solo 250 gai/ha, 20 DAT, MATCH (pyridate table)
  % activity: 0%
[5]; Ex. 26 solo 250 gai/ha, 20 DAT, MATCH (pyroxsulam table)
  % activity: 30%
[5]; Ex. 26 solo 250 gai/ha, 21 DAT, MATCH
  % activity: 0%
[5]; Ex. 26 solo, 125 gai/ha, 20 DAT, MATCH
  % activity: 0%
[5]; Ex. 26 solo, 250 gai/ha, 20 DAT, MATCH
  % activity: 0%
[5]; Ex. 26 solo, 250 gai/ha, 21 DAT, MATCH
  % activity: 20%
[5]; MATCH, 21 DAT, solo Ex. 26 62.5 gai/ha
  % activity: 0%
[5]; MATCH, Ex. 26 solo 62.5 gai/ha, 20 DAT
  % activity: 0%
[6]; 20 DAT, DIGSA, Ex. 26 solo 125 gai/ha
  % activity: 0%
[6]; [8]
  % activity: 0%
[6]; 20 DAT, Ex. 26 solo 250 gai/ha
  % activity: 20% and 30%
[6]; 21 DAT, Ex. 26 solo 125 gai/ha
  % activity: 0%
[6]; DIGSA, 21 DAT, solo Ex. 26 62.5 gai/ha
  % activity: 20%
[6]; DIGSA, 21 DAT, solo Ex. 26 125 gai/ha
  % activity: 20%
[6]; DIGSA, 21 DAT, solo Ex. 26 250 gai/ha
  % activity: 20%
[6]; DIGSA, Ex. 26 solo 125 gai/ha, 20 DAT
  % activity: 0%
[6]; Ex. 26 solo 62.5 gai/ha, 20 DAT, DIGSA
  % activity: 0%
[7]; [8]
  % activity: 0%
[7]; 20 DAT, LOLMU, Ex. 26 solo 125 gai/ha
  % activity: 65% and 55%
[7]; 20 DAT, LOLMU, Ex. 26 solo 250 gai/ha
  % activity: 65%
[7]; 21 DAT, Ex. 26 solo 125 gai/ha
  % activity: 10%
[7]; 21 DAT, Ex. 26 solo 250 gai/ha
  % activity: 55%
[7]; Ex. 26 solo 62.5 gai/ha, 20 DAT, LOLMU (pyridate table)
  % activity: 0%
[7]; Ex. 26 solo 62.5 gai/ha, 20 DAT, LOLMU (pyroxsulam table)
  % activity: 10%
[7]; Ex. 26 solo 62.5 gai/ha, 21 DAT, LOLMU
  % activity: 0%
[7]; Ex. 26 solo 125 gai/ha, 20 DAT, LOLMU (pyridate table)
  % activity: 35%
[7]; Ex. 26 solo 125 gai/ha, 20 DAT, LOLMU (pyroxsulam table)
  % activity: 35%
[7]; Ex. 26 solo 125 gai/ha, 21 DAT, LOLMU
  % activity: 10%
[7]; Ex. 26 solo 250 gai/ha, 20 DAT, LOLMU (pyridate table)
  % activity: 60%
[7]; Ex. 26 solo 250 gai/ha, 20 DAT, LOLMU (pyroxsulam table)
  % activity: 55%
[7]; Ex. 26 solo, 125 gai/ha, 20 DAT, LOLMU
  % activity: 0%
[7]; Ex. 26 solo, 125 gai/ha, 21 DAT, LOLMU
  % activity: 15%
[7]; Ex. 26 solo, 250 gai/ha, 20 DAT, LOLMU
  % activity: 25%
[7]; Ex. 26 solo, 250 gai/ha, 21 DAT, LOLMU
  % activity: 30%
[7]; LOLMU, 21 DAT, solo Ex. 26 62.5 gai/ha
  % activity: 0%
[7]; LOLMU, 21 DAT, solo Ex. 26 125 gai/ha
  % activity: 15%
[7]; LOLMU, 21 DAT, solo Ex. 26 250 gai/ha
  % activity: 30%
[7]; LOLMU, Ex. 26 solo 125 gai/ha, 20 DAT
  % activity: 55% and 35%
[7]; LOLMU, Ex. 26 solo 250 gai/ha, 20 DAT
  % activity: 65%
